From patent US9006437B2, “Xanthene dyes comprising a sulfonamide group” (Biotium, Inc., priority 2009, dated 2015)

Assay: Absorption/emission maxima of dyes in pH 7.4 PBS
Type: physicochemical

λabs (nm) (in pH 7.4 PBS) | λem (nm) (in pH 7.4 PBS) | SMILES
529/ nm | – | N=c1ccc2c(-c3ccccc3C(=O)O)c3ccc(N)cc3oc-2c1S(=O)(=O)NCCCCCC(=O)ON1C(=O)CCC1=O [Compound No. 9]
488 nm | 516 nm | N=c1ccc2c(-c3ccccc3C(=O)O)c3ccc(N)c(S(=O)(=O)NCCOCCOCCOCCOCCOCCOCCOCCOCCC(=O)ON4C(=O)CCC4=O)c3oc-2c1S(=O)(=O)O [compound 4]

Second part, the compound before the results:

SMILES | λabs (nm) (in pH 7.4 PBS) | λem (nm) (in pH 7.4 PBS)
COCCOCCNC(=O)c1ccc(-c2c3ccc(=N)c(S(=O)(=O)O)c-3oc3c(S(=O)(=O)NCCOCCOCCOCCOCCC(=O)ON4C(=O)CCC4=O)c(N)ccc23)c(C(=O)O)c1 [compound 5] | 488 nm | 516 nm
N=c1ccc2c(-c3ccccc3C(=O)O)c3ccc(N)c(S(=O)(=O)NCCCCCC(=O)ON4C(=O)CCC4=O)c3oc-2c1 [compound 1] | 488 nm | 516 nm
N=c1ccc2c(-c3ccccc3C(=O)O)c3ccc(N)c(S(=O)(=O)NCCOCCOCCOCCOCCOCCOCCOCCN)c3oc-2c1S(=O)(=O)O [compound 3] | 488 nm | 516 nm
